From ChEMBL document CHEMBL5154842, “Unique Carbazole-Oxadiazole Derivatives as New Potential Antibiotics for Combating Gram-Positive and -Negative Bacteria” (J Med Chem, 2022)
Values after ≈ are worked out from the molar mass of the structure shown. Active and inactive are the calls of the source. The calls are words filed in the database; no cut-off is given here.

Legend:
Staphylococcus aureus [1] = assay: Antibacterial activity against methicillin-resistant Staphylococcus aureus N315 assessed as inhibition of bacterial growth at 0.5 to 16 ug/ml measured after 24 hrs by microplate reader assay; format: functional, organism-based; details: dose 0.5-16 µg/ml
Staphylococcus aureus [2] = assay: Antibacterial activity against methicillin-resistant Staphylococcus aureus N315 assessed as increase in bactericidal effect at 2 to 8 ug/ml measured after 24 hrs by microplate reader assay; format: functional, organism-based; details: dose 2-8 µg/ml
HeLa = assay: Cytotoxicity against human HeLa cells assessed as cell viability at 0.5 to 64 ug/ml incubated for 24 hrs by MTT assay; format: toxicity, cell-based; details: dose 0.5-64 µg/ml
Escherichia coli [3] = assay: Antibacterial activity against Escherichia coli assessed as inhibition of bacterial growth incubated for 24 hrs by CLSI protocol based two fold serial dilution method; format: functional
Staphylococcus aureus [4] = assay: Antibacterial activity against Staphylococcus aureus ATCC 12600 assessed as inhibition of bacterial growth incubated for 24 hrs by CLSI protocol based two fold serial dilution method; format: functional
Staphylococcus aureus [5] = assay: Antibacterial activity against methicillin-resistant Staphylococcus aureus ATCC 43300 assessed as inhibition of bacterial growth incubated for 24 hrs by CLSI protocol based two fold serial dilution method; format: functional
Staphylococcus aureus [6] = assay: Antibacterial activity against methicillin-resistant Staphylococcus aureus N315 assessed as inhibition of bacterial growth incubated for 24 hrs by CLSI protocol based two fold serial dilution method; format: functional
Staphylococcus aureus [7] = assay: Antibacterial activity against Staphylococcus aureus assessed as inhibition of bacterial growth incubated for 24 hrs by CLSI protocol based two fold serial dilution method; format: functional
Acinetobacter baumannii = assay: Antibacterial activity against Acinetobacter baumannii assessed as inhibition of bacterial growth incubated for 24 hrs by CLSI protocol based two fold serial dilution method; format: functional
HEK-293T = assay: Cytotoxicity against human HEK293T cells assessed as cell viability at 0.5 to 64 ug/ml incubated for 24 hrs by MTT assay; format: toxicity, cell-based; details: dose 0.5-64 µg/ml
Escherichia coli [8] = assay: Antibacterial activity against Escherichia coli 25922 assessed as inhibition of bacterial growth incubated for 24 hrs by CLSI protocol based two fold serial dilution method; format: functional
Staphylococcus aureus [9] = assay: Antibacterial activity against Staphylococcus aureus CMCC (B) 26003 assessed as inhibition of bacterial growth incubated for 24 hrs by CLSI protocol based two fold serial dilution method; format: functional
Klebsiella pneumoniae = assay: Antibacterial activity against Klebsiella pneumonia assessed as inhibition of bacterial growth incubated for 24 hrs by CLSI protocol based two fold serial dilution method; format: functional
Cell membrane [10] = assay: Induction of cell membrane disruption in methicillin-resistant Staphylococcus aureus N315 assessed as increase in protein leakage at 0.5 to 6 ug/ml incubated under agitation condition by Bradford assay; details: dose 0.5-6 µg/ml
Staphylococcus aureus [11] = assay: Antibacterial activity against Staphylococcus aureus CMCC (B) 26001 assessed as inhibition of bacterial growth incubated for 24 hrs by CLSI protocol based two fold serial dilution method; format: functional
[12] = Hemolytic activity in human RBC assessed as hemolysis at 1 to 32 ug/ml measured after 60 mins by microplate reader assay relative to control; format: toxicity, cell-based, Erythrocyte; details: red blood cells (erythrocytes), at 1 to 32 µg/mL, dose 1-32 µg/ml, read-out: Activity
Staphylococcus aureus [13] = assay: Antibacterial activity against Staphylococcus aureus 25923 assessed as inhibition of bacterial growth incubated for 24 hrs by CLSI protocol based two fold serial dilution method; format: functional
Cell membrane [14] = assay: Induction of inner membrane permeabilization in methicillin-resistant Staphylococcus aureus N315 assessed as increase in PI uptake by measuring increase in fluorescence intensity at 1 to 8 ug/ml incubated for 30 mins by calcein-AM/PI staining based fluorescence microscopic analysis; details: dose 1-8 µg/ml, DDE = dose-dependent effect
[15] = Toxicity against Balb/c mouse assessed as body weight at 100 mg/kg, iv administered every 2 days measured after 1 week; format: organism-based; details: in vivo, 168 h, time 1 weeks
Cell membrane [16] = assay: Induction of cell membrane disruption in methicillin-resistant Staphylococcus aureus N315 assessed as increase in nucleotides leakage at 0.5 to 6 ug/ml incubated under agitation condition by UV absorption based analysis; format: subcellular; details: dose 0.5-6 µg/ml
Staphylococcus aureus [17] = assay: Antibacterial activity against methicillin-resistant Staphylococcus aureus N315 assessed as inhibition of bacterial growth at 0.25 to 64 ug/ml incubated for 24 hrs by Alamar blue assay; format: functional, organism-based; details: dose 0.25-64 µg/ml
Staphylococcus aureus [18] = assay: Antibacterial activity against Staphylococcus aureus ATCC 6583 assessed as inhibition of bacterial growth incubated for 24 hrs by CLSI protocol based two fold serial dilution method; format: functional
Staphylococcus aureus [19] = assay: Antibacterial activity against Staphylococcus aureus 29213 assessed as inhibition of bacterial growth incubated for 24 hrs by CLSI protocol based two fold serial dilution method; format: functional
Enterococcus faecalis = assay: Antibacterial activity against Enterococcus faecalis assessed as inhibition of bacterial growth incubated for 24 hrs by CLSI protocol based two fold serial dilution method; format: functional
Pseudomonas aeruginosa [20] = assay: Antibacterial activity against Pseudomonas aeruginosa assessed as inhibition of bacterial growth incubated for 24 hrs by CLSI protocol based two fold serial dilution method; format: functional
Pseudomonas aeruginosa [21] = assay: Antibacterial activity against Pseudomonas aeruginosa ATCC 27853 assessed as inhibition of bacterial growth incubated for 24 hrs by CLSI protocol based two fold serial dilution method; format: functional
Staphylococcus aureus [22] = assay: Antibacterial activity against methicillin-resistant Staphylococcus aureus N315 assessed as increase in germicidal effect at 4 ug/ml measured after 7 hrs by microplate reader assay; format: functional, organism-based; details: dose 4.0 µg/ml
Staphylococcus aureus [23] = assay: Antibacterial activity against methicillin-resistant Staphylococcus aureus N315 assessed as change in susceptibility at sub-MIC treated over 9 serial passages measured after 9 days by resistance development assay; format: functional, organism-based; details: time 9.0 day
Erythrocyte = assay: Hemolytic activity in human RBC assessed as hemolysis rate at 1 to 32 ug/ml measured after 60 mins by microplate reader assay; format: toxicity, cell-based; details: 1 h, dose 1-32 µg/ml

Row | SMILES | Activity (Staphylococcus aureus [1]) | MIC (Escherichia coli [3]) [µg/mL] | MIC (Staphylococcus aureus [6]) [µg/mL] | MIC (Staphylococcus aureus [7]) [µg/mL] | MIC (Acinetobacter baumannii) [µg/mL] | MIC (Escherichia coli [8]) [µg/mL] | MIC (Klebsiella pneumoniae) [µg/mL] | MIC (Staphylococcus aureus [13]) [µg/mL] | Activity (Staphylococcus aureus [17]) | MIC (Staphylococcus aureus [19]) [µg/mL] | MIC (Enterococcus faecalis) [µg/mL] | MIC (Pseudomonas aeruginosa [20]) [µg/mL] | MIC (Pseudomonas aeruginosa [21]) [µg/mL] | also measured
1 | C=CCOc1cccc2c1c1ccccc1n2Cc1nnc(S)o1 | Active | 4 (≈ 11.9 µM) | 2 (≈ 5.93 µM) | 256 (≈ 759 µM) | 0.25 (≈ 0.741 µM) | 0.25 (≈ 0.741 µM) | 4 (≈ 11.9 µM) | 8 (≈ 23.7 µM) | Active | 0.25 (≈ 0.741 µM) | 1 (≈ 2.96 µM) | 128 (≈ 379 µM) | 4 (≈ 11.9 µM) | Activity (Staphylococcus aureus [2]): Active; Activity (HeLa): Non-Toxic; MIC (Staphylococcus aureus [4]): 0.25 µg/mL (≈ 0.741 µM); MIC (Staphylococcus aureus [5]): 0.25 µg/mL (≈ 0.741 µM); Activity (HEK-293T): Non-Toxic; MIC (Staphylococcus aureus [9]): 0.25 µg/mL (≈ 0.741 µM); Activity (Cell membrane [10]): Active; MIC (Staphylococcus aureus [11]): 0.25 µg/mL (≈ 0.741 µM); hemolysis at 1 h [12]: < 3%; Activity (Cell membrane [14]): Dde; Activity [15]: Non-Toxic; Activity (Cell membrane [16]): Active; MIC (Staphylococcus aureus [18]): 0.25 µg/mL (≈ 0.741 µM)
2 | Sc1nnc(Cn2c3ccccc3c3c(OCC4CCCCC4)cccc32)o1 | Active | 1 (≈ 2.54 µM) | 0.25 (≈ 0.635 µM) | 256 (≈ 651 µM) | 0.5 (≈ 1.27 µM) | 0.25 (≈ 0.635 µM) | 4 (≈ 10.2 µM) | 4 (≈ 10.2 µM) | Active | 4 (≈ 10.2 µM) | 4 (≈ 10.2 µM) | 128 (≈ 325 µM) | 4 (≈ 10.2 µM) | Activity (Staphylococcus aureus [22]): Active; Activity (Staphylococcus aureus [23]): Active; Activity (Erythrocyte): Toxic
